In patent US6589983B1, “Benzopyran derivative” (Nissan Chemical Industries, Ltd., priority 1999, dated 2003):

Tested on: guinea-pig left atrium muscle
Test: Effects of compound on the functional refractory period in guinea-pig left atrium muscle
Details: isolated atrium muscle, stimulated at 1 Hz, compound added cumulatively, 15 minutes per concentration, 36±1° C.
Text: Effects of compound on the functional refractory period in guinea-pig left atrium muscle and right ventricular papillary muscle
Hearts were removed from guinea-pigs, and left atrium muscle or right ventricular papillary muscle were isolated therefrom in a Krebs-Henseleit solution aerated with 95% O2+5% CO2. The samples were stimulated electrically at a rate of 1 Hz and a voltage of 1.5 times of the threshold value reacted to stimulation (basic stimulation; S1) by using an electric stimulating apparatus. The contraction occurred at that time was recorded by a thermal stylus recorder via a FD pickup and a strain pressure amplifier. The functional refractory period is defined as the shortest time interval between S1 resulting from determinable contraction and an extra stimulation (S2). The time interval between S1 and S2 in the left atrium muscle sample was started from 150 msec, decreased in 10 msec steps until 100 msec, and thereafter 5 msec steps to the functional refractory period. For the right ventricular papillary muscle sample, it was started from 300 msec and decreased in 10 msec steps until the functional refractory period. Herein, S2 was set at twice of the threshold value which reacted to stimulation. The experimental temperature was 36±1° C. […] After determining the basic value before addition of the compound, the compound was added cumulatively, incubated for 15 minutes for respective concentration, and thereafter the functional refractory period was determined.

Compared with `CC(=O)Nc1cc2c(cc1[N+](=O)[O-])OC(C)(C)[C@H](O)[C@H]2NCCc1ccc(Cl)cc1` [compound 6], `CC(=O)Nc1cc2c(cc1[N+](=O)[O-])OC(C)(C)[C@H](O)[C@H]2NCCc1ccc(O)cc1` [compound 4] is 3.6-fold higher in “Prolongation effect on FRP EC20” value: 1.4 µM for the first, 5.0 µM for the second.

First: CC(=O)Nc1cc2c(cc1[N+](=O)[O-])OC(C)(C)[C@H](O)[C@H]2NCCc1ccc([N+](=O)[O-])cc1 [compound 8]
Second: COc1ccc(CCN[C@H]2c3cc(NC(C)=O)c([N+](=O)[O-])cc3OC(C)(C)[C@@H]2O)cc1 [compound 5]
The “Prolongation effect on FRP EC20” value of the first is 3.1-fold lower: 1.8 µM for the first, 5.5 µM for the second.

Compared with `CC(=O)Nc1cc2c(cc1[N+](=O)[O-])OC(C)(C)[C@H](O)[C@H]2NCCCCc1ccccc1` [compound 3], `CC(=O)Nc1cc2c(cc1[N+](=O)[O-])OC(C)(C)[C@H](O)[C@H]2NCCc1ccccc1` [compound 1] is 1.5-fold higher in “Prolongation effect on FRP EC20” value: 4.0 µM for the first, 6.1 µM for the second.

Tested on: not given
Test: not given
Details: not given

For `CC(=O)Nc1cc2c(cc1[N+](=O)[O-])OC(C)(C)[C@H](O)[C@H]2NCCc1ccc([N+](=O)[O-])cc1` (stereo in doubt), the melting point was 211 to 213 °C (dec.).
